In patent US12404261B2, “Compounds and compositions for treating conditions associated with cGAS” (Novartis AG, priority 2020, dated 2025) one finds IC50 data, which are given here for 13 compounds.

Structures are written as SMILES.

The assay deals with human truncated cGAS enzyme (147-522 human cGAS) (Homo sapiens (Human), UniProt Q8N884). The experiment in a line: Quantification of cGAS protein inhibition (cGAMP formation measured by LC-MS/MS). Type of assay: biochemical. The gist of the method: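 Human cGAS 147-522 (30 nM) in Tris pH 7.5, NaCl, MgCl2, ZnCl2, Tween 20, started with 5 μM ISD 45 bp dsDNA, 0.5 mM GTP and 0.5 mM ATP. Incubated 1 h at room temperature, then quenched with acetonitrile/TFA. cGAMP quantified by LC-MS/MS against a labelled cGAMP internal standard; IC50 from ratio versus compound concentration.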
Chain of human truncated cGAS enzyme (147-522 human cGAS) (Q8N884 147-522): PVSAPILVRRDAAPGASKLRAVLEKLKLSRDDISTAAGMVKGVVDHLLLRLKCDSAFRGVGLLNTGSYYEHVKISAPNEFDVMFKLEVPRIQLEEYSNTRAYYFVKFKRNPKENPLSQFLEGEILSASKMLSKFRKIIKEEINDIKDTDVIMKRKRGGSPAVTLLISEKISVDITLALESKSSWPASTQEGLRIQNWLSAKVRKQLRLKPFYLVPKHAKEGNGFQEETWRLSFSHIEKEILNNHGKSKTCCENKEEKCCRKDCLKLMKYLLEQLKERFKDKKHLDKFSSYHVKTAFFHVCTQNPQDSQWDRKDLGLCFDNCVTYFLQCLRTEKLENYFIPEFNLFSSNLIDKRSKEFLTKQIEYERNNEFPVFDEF

[1] abbreviates: reported for the potential mixture of co-existing tautomers and/or racemates.
[2] abbreviates: reported for the potential mixture in solution of co-existing tautomers and/or racemates.

What is called IC50 is the concentration that gives 50% inhibition.

As to `COCC(F)(F)c1nnc(-c2c(-c3cn[nH]c3)c3cc(OC)c(Cl)c(F)c3n2C)[nH]1` [Example 66, 6-chloro-2-(5-(1,1-difluoro-2-methoxyethyl)-4H-1,2,4-triazol-3-yl)-7-fluoro-5-methoxy-1-methyl-3-(1H-pyrazol-4-yl)-1H-indole], the IC50 under setting [1] was determined as 30 nM.

For `Clc1ccc2c(-c3cn[nH]c3)c(-c3nnc[nH]3)[nH]c2c1Cl` [Example 38, 6,7-dichloro-3-(1H-pyrazol-4-yl)-2-(4H-1,2,4-triazol-3-yl)-1H-indole], under setting [1], the IC50 came out at 136 nM.

`COc1cc2c(-c3cn[nH]c3)c(-c3nnc(C(C)F)[nH]3)[nH]c2c(F)c1Cl` (stereo not shown) [Example 71, 6-chloro-7-fluoro-2-(5-(1-fluoroethyl)-4H-1,2,4-triazol-3-yl)-5-methoxy-3-(1H-pyrazol-4-yl)-1H-indole]: the half-inhibitory concentration (IC50) under setting [1] was determined as 44 nM.

On to `COc1cc2c(-c3cn[nH]c3)c(-c3nnc(C(F)(F)F)[nH]3)n(CCO)c2cc1Cl` [Example 25, 2-(6-chloro-5-methoxy-3-(1H-pyrazol-4-yl)-2-(5-(trifluoromethyl)-4H-1,2,4-triazol-3-yl)-1H-indol-1-yl)ethan-1-ol], for which the IC50 under setting [1] is 1430 nM.

For `COc1cc2c(-n3ccnc3)c(-c3nnc(C(O)C(F)F)[nH]3)n(C)c2c(F)c1Cl` (stereo not shown) [Example 96, 1-(5-(6-chloro-7-fluoro-3-(1H-imidazol-1-yl)-5-methoxy-1-methyl-1H-indol-2-yl)-4H-1,2,4-triazol-3-yl)-2,2-difluoroethan-1-ol], the IC50 under setting [1] came to 30 nM.

As for `Fc1ccc2c(-c3cn[nH]c3)c(-c3nnc(C(F)(F)F)[nH]3)[nH]c2c1F` [Example 14, 6,7-difluoro-3-(1H-pyrazol-4-yl)-2-(5-(trifluoromethyl)-4H-1,2,4-triazol-3-yl)-1H-indole], under setting [1], the IC50 was determined as 196 nM.

`COc1cc2c(-n3ccnc3)c(-c3nnc(C(F)(F)CO)[nH]3)n(C)c2c(F)c1Cl` [Example 95, 2-(5-(6-chloro-7-fluoro-3-(1H-imidazol-1-yl)-5-methoxy-1-methyl-1H-indol-2-yl)-4H-1,2,4-triazol-3-yl)-2,2-difluoroethan-1-ol]: the IC50 under setting [1] stood at 56 nM.

For `COCc1nnc(-c2c(-n3ccnc3)c3cc(OC)c(Cl)c(F)c3n2C)[nH]1` [Example 49, 6-chloro-7-fluoro-3-(1H-imidazol-1-yl)-5-methoxy-2-(5-(methoxymethyl)-4H-1,2,4-triazol-3-yl)-1-methyl-1H-indole], the IC50 under setting [1] was found to be 107 nM.

Turning to `COCC(c1nnc(-c2c(-n3ccnc3)c3cc(OC)c(Cl)c(F)c3n2C)[nH]1)N1CCOCC1` (stereo not shown) [Example 126, 4-(1-(5-(6-chloro-7-fluoro-3-(1H-imidazol-1-yl)-5-methoxy-1-methyl-1H-indol-2-yl)-4H-1,2,4-triazol-3-yl)-2-methoxyethyl)morpholine], the IC50 under setting [2] stood at 411 nM.

For `COc1cc2c(-n3ccnc3)c(-c3nnc(CSC)[nH]3)n(C)c2c(F)c1Cl` [Example 50, 6-Chloro-7-fluoro-3-(1H-imidazol-1-yl)-5-methoxy-1-methyl-2-(5-((methylthio)methyl)-4H-1,2,4-triazol-3-yl)-1H-indole], under setting [1], the IC50 was 57 nM.

On to `COCC(=O)c1nnc(-c2[nH]c3c(Cl)c(Cl)ccc3c2-c2cn[nH]c2)[nH]1` [Example 7, 1-(5-(6,7-dichloro-3-(1H-pyrazol-4-yl)-1H-indol-2-yl)-4H-1,2,4-triazol-3-yl)-2-methoxyethan-1-one], for which the IC50 under setting [1] came out at 30 nM.

For `Fc1c(Cl)ccc2c(-c3cn[nH]c3)c(-c3nnc(C(F)(F)F)[nH]3)[nH]c12` [Example 16, 6-chloro-7-fluoro-3-(1H-pyrazol-4-yl)-2-(5-(trifluoromethyl)-4H-1,2,4-triazol-3-yl)-1H-indole], the concentration for half-maximal inhibition (IC50) under setting [1] was determined as 44 nM.

`FC(F)(F)c1nnc(-c2[nH]c3cc(Cl)c(Cl)cc3c2-n2ccnc2)[nH]1` [Example 105, 5,6-dichloro-3-(1H-imidazol-1-yl)-2-(5-(trifluoromethyl)-4H-1,2,4-triazol-3-yl)-1H-indole]: the IC50 under setting [2] was found to be 564 nM.
